# Measured values taken from patent publication US9913838B2, “Methods of treating cancer using compositions comprising perillyl alcohol derivative” (NEONC TECHNOLOGIES INC., priority 2010, dated 2018).
# Read-outs that look alike come from different tables or passages of the source.
# Experiments:
# [1] = system: subcutaneous U-87 gliomas; experiment: Nude mouse subcutaneous glioma model, local application; assay type: in vivo, nude mice; settings: local application via Q-tip daily over 8 weeks; ranking in words
# Method: Inhibition of tumor growth by butyryl-POH was studied in a nude mouse subcutaneous glioma model. Mice were injected with U-87 glioma cells (500,000 cells/injection) and allowed to form a palpable nodule over two weeks. Once palpable nodule was formed, the mice were treated with local application of various compounds as indicated in FIGS. 9A and 9B via a Q-tip (1 cc/application/day) over a period of 8 weeks.
# [2] = system: MDA-MB-468; experiment: Colony formation assay, MDA-MB-468; settings: pre-treated with O6-BG for 60 minutes; MDA-MB-468
# Method: (§1) Depending on the cell line (and plating efficiency), 200-350 cells were seeded into each well of a 6-well plate. […] Thereafter, the drugs were removed, fresh growth medium was added, and the cells were kept in culture undisturbed for 12-16 days, during which time the surviving cells spawned colonies of descendants. Colonies (defined as groups of >50 cells) were visualized by staining for 4 hours with 1% methylene blue (in methanol), and then were counted.
# (§2) In the case of O6-BG treatment, cells were pretreated with 10 μM O6-BG for one hour before addition of TMZ or TMZ-POH. After 24 hours, another 10 μM O6-BG was added to the medium. Another 24 hours later, drug-laced medium was removed, and fresh medium without drugs was added. Thereafter, cells remained undisturbed until staining with methylene blue.
# (§3) The cytotoxic potency of TMZ-POH, was analyzed by colony formation assay (CFA) in a variety of human breast cancer cell lines and compared to the cytotoxicity of TMZ. We used estrogen receptor positive cells MCF7 and T47D, the triple-negative lines MDA-MB-231, MDA-MB-468, and HCC-1937, and a brain-seeking variant of the 231 cell line, MDA-MB-231-br.
# [3] = system: 231-MGMT-1; experiment: Colony formation assay, MGMT-transfected 231-MGMT-1; assay type: cell-based, human; settings: pre-treated with O6-BG for 60 minutes; 231-MGMT-1
# Method: as §1, §2
# (§4) MDA-MB-231 cells were co-transfected in 6-well plates with the use of Lipofectamine 2000 (Invitrogen, Carlsbad, Calif.) according to manufacturer's instructions. 2 μg pSV2MGMT (containing the human MGMT cDNA) was combined with 0.2 μg pSV2neo (containing the neomycin gene for selection of cells in G418). Both plasmids were provided by Bernd Kaina (Mainz, Germany). Individual clones of transfected cells were selected in medium containing 750 μg/mL G418 and propagated in 250 μg/mL G418. G418 was obtained as G418 disulfate salt from Sigma-Aldrich and dissolved in PBS at 75 mg/mL. Selection medium was removed from cells several days before experimental drug treatment.
# (§5) To investigate the latter, we stably transfected MGMT-negative MDA-MB-231 cells with MGMT cDNA and isolated individual clones. […] Both clones were treated with increasing concentrations of TMZ-POH and TMZ and analyzed by CFA.
# [4] = system: TMZ-resistant tumors; settings: O6-BG and TMZ, cited from earlier work
# [5] = system: MGMT; experiment: Western blot of MGMT protein levels in MDA-MB-468 cells; assay type: cell-based, human; settings: MDA-MB-468, 17 hours; in words
# Method: In FIG. 21C, MDA-MB-468 cells were treated with the indicated concentrations of TMZ-POH, TMZ, or O6-BG for 17 hours before harvest of cellular lysates. vh.=cells treated with vehicle only.
# (§6) Total cell lysates were analyzed by Western blot analysis as described in P. Pyrko et al. Downregulation of survivin expression and concomitant induction of apoptosis by celecoxib and its non-cyclooxygenase-2-inhibitory analog, dimethyl-celecoxib (DMC), in tumor cells in vitro and in vivo. Mol Cancer 5 (2006) 19. The primary antibodies were purchased from Cell Signaling Technology (Beverly, Mass.) or Santa Cruz Biotechnology, Inc. (Santa Cruz, Calif.) and used according to the manufacturers' recommendations. All immunoblots were repeated at least once to confirm the results.
# The major cytotoxic DNA lesion set by TMZ is methylation of O6-guanine, and it is well known that removal of this methyl group by MGMT leads to rapid degradation of the DNA repair protein.
# [6] = system: MDA-MB-231; experiment: cells
# Method: as §1, §2, §3
# Thus, we tested whether simply mixing the two compounds TMZ and POH could mimic the effects of the TMZ-POH conjugate. MDA-MB-231 cells were treated with the individual compounds (TMZ-POH, TMZ or POH) alone, or with an equimolar mix of TMZ plus POH, and cell survival was analyzed by CFA.
# [7] = system: MCF7; experiment: Colony formation assay, MCF7; settings: pre-treated with O6-BG for 60 minutes; MCF7
# Method: as §1, §2, §3
# [8] = system: 231-MGMT-2; experiment: Colony formation assay, MGMT-transfected 231-MGMT-2; assay type: cell-based, human; settings: pre-treated with O6-BG for 60 minutes; 231-MGMT-2
# Method: as §1, §2, §4, §5
# [9] = system: TMZ sensitive (U251) cells; experiment: Colony forming assay, TMZ sensitive U251 cells; assay type: cell-based, human; settings: in words
# Method: (§7) Colony forming assays were carried out after cells were treated with TMZ alone, POH alone, and the TMZ-POH conjugate. […] Cancer Lett. 2011 Mar. 28; 302(2):100-8.
# [10] = system: TMZ resistant (U251TR) U251 cells; experiment: Colony forming assay, TMZ resistant U251TR cells; assay type: cell-based, human; settings: in words
# Method: as §7
# [11] = system: USC-02 glioma cancer stem cells; experiment: MTT cytotoxicity assay, USC-02 glioma cancer stem cells; assay type: cell-based; settings: TMZ 0-400 uM, POH 0-2 mM, in words
# From the text: Cancer Lett. 2011 Mar. 28; 302(2):100-8.
# [12] = system: γ-H2AX, activated caspase 7 and cleaved PARP; experiment: DNA damage and cell death marker analysis in MDA-MB-231 cells (Western blot); assay type: cell-based, human; settings: MDA-MB-231, 20 μM, after 5 days of treatment; in words
# Method: FIGS. 25A-25B show DNA damage and cell death marker analysis, where MDA-MB-231 cells were used for Western blot analysis of expression levels for markers of DNA damage (γ-H2AX) and cell death (activated caspase 7 and cleaved PARP). In FIG. 25A, cells were treated with 15 μM TMZ-POH and harvested every 24 hours up to 6 days; control cells remained untreated, or received vehicle (vh.) only. In FIG. 25B, cells were treated with 20 μM of either TMZ-POH, TMZ, or POH individually, or with 20 μM TMZ combined with 20 μM POH (TMZ+POH) and harvested after 24 hours or 5 days; control cells remained untreated, or received vehicle (vh.) only. In the case of caspase 7, only the activated (cleaved) form is shown (cl. C-7).
# as §6
# It is known that GBM cells treated with physiological concentrations of TMZ (<100 μM) in vitro can survive for several (5-7) days seemingly unaffected before substantial cell death becomes apparent. We observed a similar phenotype when breast cancer cell lines were treated with TMZ-POH, i.e., cell cultures only began to deteriorate approximately a week after the onset of drug treatment. In order to characterize TMZ-POH-induced cell death in greater detail, we treated MDA-MB-231 cells with 15 μM of the drug and collected cell lysates daily over the course of 6 days. The lysates were analyzed by Western blot for the presence of two apoptosis markers, cleaved (i.e. activated) caspase 7 and cleaved PARP-1 (poly ADP-ribose polymerase-1), along with the DNA damage marker γ-H2AX.
# As shown in FIGS. 20A-20B above, an equimolar combination of TMZ+POH was unable to achieve the same potency in blocking colony survival as the TMZ-POH conjugate. […] We treated cells with the same concentration (20 μM) of TMZ-POH, TMZ, POH, or TMZ combined with POH (TMZ+POH), and analyzed the induction of γ-H2AX, activated caspase 7, and cleaved PARP. […] Thus, the results from the cell survival assay (FIGS. 20A-20B) correlated closely with the effects of these compounds on DNA damage and apoptosis markers (FIG. 25B), and in all cases TMZ-POH clearly generated the strongest anticancer impact.
# [13] = system: U251 human glioma cells; experiment: MTT cytotoxicity assay, U251 glioma cells; settings: for cytotoxicity (MTT assay): U251, result in words
# From the text: (§8) In vitro efficacy of the present composition can be determined using methods well known in the art. For example, the cytoxicity of the present monoterpene (or sesquiterpene) and/or the therapeutic agents may be studied by MTT [3-(4,5-dimethylthiazol-2-yl)-2,5-diphenyl tetrazolium bromide] cytotoxicity assay. MTT assay is based on the principle of uptake of MTT, a tetrazolium salt, by metabolically active cells where it is metabolized into a blue colored formazon product, which can be read spectrometrically. J. of Immunological Methods 65: 55 63, 1983. The cytoxicity of the present monoterpene (or sesquiterpene) derivative and/or the therapeutic agents may be studied by colony formation assay. Functional assays for inhibition of VEGF secretion and IL-8 secretion may be performed via ELISA. Cell cycle block by the present monoterpene (or sesquiterpene) derivative and/or the therapeutic agents may be studied by standard propidium iodide (PI) staining and flow cytometry. Invasion inhibition may be studied by Boyden chambers. In this assay a layer of reconstituted basement membrane, Matrigel, is coated onto chemotaxis filters and acts as a barrier to the migration of cells in the Boyden chambers. Only cells with invasive capacity can cross the Matrigel barrier. Other assays include, but are not limited to cell viability assays, apoptosis assays, and morphological assays.
# (§9) First cytotoxicity assays were carried out after cells were treated with dimethyl-celecoxib (DMC) alone.
# (§10) Then U87, A172 and U251 cells were treated with dimethyl celecoxib bisPOH carbamate (POH−DMC) (e.g., synthesized by the method in Example 1), and the MTT cytotoxicity assays performed (FIG. 2).
# (§11) First cytotoxicity assays were carried out after cells were treated with temozolomide (TMZ) alone, the standard alkylating agent used in the treatment of malignant gliomas.
# (§12) Then TMZ-resistant glioma cell lines U87, A172 and U251 cells were treated with TMZ-POH (e.g., synthesized by the method in Example 3).
# (§13) To compare the cytotoxicity of Rolipram POH Carbamate (POH-Rolipram) (e.g., synthesized by the method in Example 5) with rolipram, […] inducing differentiation and apoptosis in glioma cells, A172, U87, U251 and LN229 human glioma cells were treated with either POH-Rolipram or rolipram for 48 hours.
# MTT cytotoxicity assays were carried out after cells were treated with the TMZ-POH conjugate. The MTT cytotoxicity assays were carried out as described in Chen T C, et al. Green tea epigallocatechin gallate enhances therapeutic efficacy of temozolomide in orthotopic mouse glioblastoma models. Cancer Lett. 2011 Mar. 28; 302(2):100-8.
# [14] = system: U87 human glioma cells; experiment: MTT cytotoxicity assay, U87 glioma cells; settings: for cytotoxicity (MTT assay): U87, result in words
# From the text: as §8, §9, §10, §11, §12, §13
# [15] = system: A172 human glioma cells; experiment: MTT cytotoxicity assay, A172 glioma cells; settings: for cytotoxicity (MTT assay): A172, result in words
# From the text: as §8, §9, §10, §11, §12, §13
# [16] = system: LN229 human glioma cells; experiment: cells
# From the text: as §8, §13
structure (smiles),measurement,setting,value
C=C(C)C1CC=C(COC(=O)CCC)CC1 (centres unmarked) [Butyryl-POH],inhibition of tumor growth,[1],greatest inhibition of tumor growth
"Nc1nc(OCc2ccccc2)c2nc[nH]c2n1 [O6-BG, O6-benzylguanine, reference compound]",effect of O6-BG on cytotoxic outcome of TMZ-POH and TMZ treatment,[2],increased the cytotoxic outcome
same,effect of O6-BG on toxicity of TMZ-POH and TMZ,[3],greatly enhanced toxicity
same,fraction of patients with restored TMZ-sensitivity,"[4]; patients with GBM, no significant effect",3%
same,fraction of patients with restored TMZ-sensitivity,[4]; patients with anaplastic glioma,16%
same,MGMT protein levels,[5],strongly decreases MGMT protein levels
same,effect of O6-BG on survival of cells treated with TMZ-POH or TMZ,"[6]; pre-treated with O6-BG for 60 minutes, MDA-MB-231",had no effect
same,effect of O6-BG on cytotoxic outcome of TMZ-POH and TMZ treatment,[7],increased the cytotoxic outcome
same,effect of O6-BG on toxicity of TMZ-POH and TMZ,[8],greatly enhanced toxicity
"C=C(C)[C@@H]1CC=C(CO)CC1 [POH, Perillyl alcohol]",cytotoxicity (colony forming assay),[9],demonstrated cytotoxicity
same,concentrations required in order to become cytotoxic,[6],above 100 μM
same,IC50,"[6]; Homo sapiens, MDA-MB-231, 48 h, read-out: IC50 (concentration required to decrease colony formation by 50%)",~700 µM
same,cytotoxicity (colony forming assay),[10],demonstrated cytotoxicity
same,cytotoxicity (MTT assay),[11],demonstrated cytotoxicity
same,"induction of γ-H2AX, activated caspase 7, and cleaved PARP",[12],inactive
"C=C(C)C1CC=C(COC(=O)N2CC(c3ccc(OC)c(OC4CCCC4)c3)CC2=O)CC1 (centres unmarked) [POH-rolipram, 4-(3-cyclopentyloxy-4-methoxyphenyl)-2-oxo-pyrrolidine-1-carboxylic acid 4-isopropenyl cyclohex-1-enylmethyl ester]",cytotoxicity (MTT assay),[13],substantially higher kill rates compared to rolipram alone
same,IC50,"[13]; U251 cells, 48 hours",50 µM
same,cytoxicity,"[13]; U251 cells, at 100 uM",~100%
same,cytotoxicity (MTT assay),[14],substantially higher kill rates compared to rolipram alone
same,IC50,"[14]; U-87 cells, 48 hours",180 µM
same,cytotoxicity (MTT assay),[15],substantially higher kill rates compared to rolipram alone
same,IC50,"[15]; A-172 cells, 48 hours",50 µM
same,cytotoxicity (MTT assay),[16],substantially higher kill rates compared to rolipram alone
same,IC50,"[16]; LN229 cells, 48 hours",100 µM
C=C(C)C1CC=C(COC(=O)N(C(=O)OCC2=CCC(C(=C)C)CC2)S(=O)(=O)c2ccc(-n3nc(C(F)(F)F)cc3-c3cc(C)ccc3C)cc2)CC1 (centres unmarked) [POH−DMC],cytotoxicity (MTT assay),[13],much better cytotoxicity than DMC alone
same,cytotoxicity (MTT assay),[14],much better cytotoxicity than DMC alone
same,cytotoxicity (MTT assay),[15],much better cytotoxicity than DMC alone
"COc1ccc(C2CNC(=O)C2)cc1OC1CCCC1 (centres unmarked) [rolipram, reference compound]",IC50,"[13]; Homo sapiens, U-251, 48 h",170 µM
same,plateau cytotoxicity,[13]; U251 cells,60%
same,IC50,"[14]; Homo sapiens, U-87 MG, 48 h",> 1000 µM
same,IC50,"[15]; Homo sapiens, A 172, 48 h",~1000 µM
same,IC50,"[16]; Homo sapiens, LN-229, 48 h",> 100 µM
